# Calls of active or inactive are those of the source. The calls are words filed in the database; no cut-off is given here.
# Assays:
# MDA-MB-231 [1] = test: Antiproliferative activity against human MDA-MB-231 cells assessed as reduction in cell viability incubated for 72 hrs by sulforhodamine B assay; assay type: functional, cell-based; conditions: MDA-MB-231, 72 h
# [2] = Selectivity index, ratio of IC50 for cytotoxicity against human MRC5 cells to IC50 for antiproliferative activity against human MDA-MB-231 cells; assay type: toxicity, cell-based; conditions: MRC5 cells and MDA-MB-231 cells, read-out: Ratio IC50
# [3] = Antiproliferative activity against […] cells assessed as reduction in cell viability incubated for 72 hrs by MTT assay; assay type: functional, cell-based
# [4] = target: Signal transducer and activator of transcription 3 (Homo sapiens) (UniProt P40763); test: Inhibition of STAT3 phosphorylation at Y705 residue in docetaxel-resistant human MDA-MB-231-DTR cells assessed as decrease in phosphorylated STAT3 level at 2.5 to 10 uM incubated for 24 hrs by Western blot analysis; assay type: cell-based; conditions: dose 2.5-10 µM
# Sequence of Signal transducer and activator of transcription 3 (Homo sapiens) (P40763 whole entry): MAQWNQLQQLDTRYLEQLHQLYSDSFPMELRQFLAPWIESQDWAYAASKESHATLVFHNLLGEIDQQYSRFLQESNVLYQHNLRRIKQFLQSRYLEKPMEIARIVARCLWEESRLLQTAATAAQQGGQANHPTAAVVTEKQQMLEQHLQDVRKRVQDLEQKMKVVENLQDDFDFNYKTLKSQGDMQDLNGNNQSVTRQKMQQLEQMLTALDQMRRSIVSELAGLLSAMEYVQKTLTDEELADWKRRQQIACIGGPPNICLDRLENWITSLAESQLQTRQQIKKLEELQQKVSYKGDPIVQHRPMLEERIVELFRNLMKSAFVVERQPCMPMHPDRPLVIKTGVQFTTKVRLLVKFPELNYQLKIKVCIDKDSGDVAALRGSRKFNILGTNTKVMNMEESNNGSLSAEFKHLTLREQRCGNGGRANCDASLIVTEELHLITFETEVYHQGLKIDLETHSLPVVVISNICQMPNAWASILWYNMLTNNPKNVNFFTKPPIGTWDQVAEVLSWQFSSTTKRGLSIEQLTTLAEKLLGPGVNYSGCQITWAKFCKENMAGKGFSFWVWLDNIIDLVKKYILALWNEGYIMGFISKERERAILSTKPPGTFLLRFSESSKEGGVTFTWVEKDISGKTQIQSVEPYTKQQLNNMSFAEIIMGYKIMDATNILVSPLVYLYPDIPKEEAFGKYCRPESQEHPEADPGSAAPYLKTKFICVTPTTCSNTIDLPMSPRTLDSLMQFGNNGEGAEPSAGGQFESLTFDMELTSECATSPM
# [5] = Synergistic antiproliferative activity against docetaxel-resistant human MDA-MB-231-DTR cells assessed as combination index at 4 uM incubated for 72 hrs in presence of 4 uM of docetaxel by Chou-Talalay method; assay type: functional
# [6] = Synergistic antiproliferative activity against docetaxel-resistant human MDA-MB-231-DTR cells assessed as combination index at 8 uM incubated for 72 hrs in presence of 1 uM of docetaxel by Chou-Talalay method; assay type: functional
# [7] = Synergistic antiproliferative activity against docetaxel-resistant human MDA-MB-231-DTR cells assessed as combination index at 8 uM incubated for 72 hrs in presence of 2 uM of docetaxel by Chou-Talalay method; assay type: functional
# [8] = Synergistic antiproliferative activity against docetaxel-resistant human MDA-MB-231-DTR cells assessed as combination index at 8 uM incubated for 72 hrs in presence of 4 uM of docetaxel by Chou-Talalay method; assay type: functional
# [9] = Induction of cell cycle arrest in docetaxel-resistant human MDA-MB-231-DTR cells assessed as accumulation at G2/M phase at 5 uM incubated for 24 hrs by PI staining based flow cytometry analysis (reference value: 13.54%); assay type: functional
# [10] = Induction of cell cycle arrest in docetaxel-resistant human MDA-MB-231-DTR cells assessed as accumulation at subG1 phase at 10 uM incubated for 36 hrs by PI staining based flow cytometry analysis (reference value: 0.52%); assay type: functional
# [11] = Induction of cell cycle arrest in docetaxel-resistant human MDA-MB-231-DTR cells assessed as accumulation at G0/G1 phase at 5 uM incubated for 36 hrs by PI staining based flow cytometry analysis (reference value: 74.77%); assay type: functional
# [12] = Induction of cell cycle arrest in docetaxel-resistant human MDA-MB-231-DTR cells assessed as accumulation at S phase at 2.5 uM incubated for 36 hrs by PI staining based flow cytometry analysis (reference value: 11.57%); assay type: functional
# [13] = Induction of cell cycle arrest in docetaxel-resistant human MDA-MB-231-DTR cells assessed as accumulation at S phase at 10 uM incubated for 36 hrs by PI staining based flow cytometry analysis (reference value: 11.57%); assay type: functional
# [14] = Induction of cell cycle arrest in docetaxel-resistant human MDA-MB-231-DTR cells assessed as accumulation at G2/M phase at 10 uM incubated for 36 hrs by PI staining based flow cytometry analysis (reference value: 13.16%); assay type: functional
# MDA-MB-231 [15] = test: Induction of cell cycle arrest at G2/M phase in docetaxel-resistant human MDA-MB-231-DTR cells assessed as upregulation of Chk1 phosphorylation at S345 at 2.5 to 10 uM incubated for 36 hrs by Western blot analysis; assay type: functional, cell-based; conditions: dose 2.5-10 µM
# MDA-MB-231 [16] = test: Induction of cell cycle arrest at G2/M phase in docetaxel-resistant human MDA-MB-231-DTR cells assessed as downregulation of c-Myc expression level at 2.5 to 10 uM incubated for 36 hrs by Western blot analysis; assay type: functional, cell-based; conditions: dose 2.5-10 µM
# MDA-MB-231 [17] = test: Induction of cell cycle arrest at G2/M phase in docetaxel-resistant human MDA-MB-231-DTR cells assessed as downregulation of Cdc25C expression level at 2.5 to 10 uM incubated for 36 hrs by Western blot analysis; assay type: functional, cell-based; conditions: dose 2.5-10 µM
# [18] = Induction of cell cycle arrest in docetaxel-resistant human MDA-MB-231-DTR cells assessed as accumulation at subG1 phase at 5 uM incubated for 24 hrs by PI staining based flow cytometry analysis (reference value: 0.41%); assay type: functional
# [19] = Induction of cell cycle arrest in docetaxel-resistant human MDA-MB-231-DTR cells assessed as accumulation at subG1 phase at 5 uM incubated for 48 hrs by PI staining based flow cytometry analysis (reference value: 0.41%); assay type: functional
# [20] = Induction of cell cycle arrest in docetaxel-resistant human MDA-MB-231-DTR cells assessed as accumulation at G0/G1 phase at 5 uM incubated for 36 hrs by PI staining based flow cytometry analysis (reference value: 75.49%); assay type: functional
# [21] = Induction of cell cycle arrest in docetaxel-resistant human MDA-MB-231-DTR cells assessed as accumulation at S phase at 5 uM incubated for 12 hrs by PI staining based flow cytometry analysis (reference value: 10.56%); assay type: functional
# [22] = Induction of cell cycle arrest in docetaxel-resistant human MDA-MB-231-DTR cells assessed as accumulation at G2/M phase at 5 uM incubated for 12 hrs by PI staining based flow cytometry analysis (reference value: 13.54%); assay type: functional
# [23] = Induction of cell cycle arrest in docetaxel-resistant human MDA-MB-231-DTR cells assessed as accumulation at G2/M phase at 5 uM incubated for 36 hrs by PI staining based flow cytometry analysis (reference value: 13.54%); assay type: functional
# MDA-MB-231 [24] = test: Induction of apoptosis in docetaxel-resistant human MDA-MB-231-DTR cells assessed as upregulation of cleaved-caspase-9 expression level at 2.5 to 10 uM incubated for 48 hrs by Western blot analysis; assay type: functional, cell-based; conditions: dose 2.5-10 µM
# MDA-MB-231 [25] = test: Induction of apoptosis in docetaxel-resistant human MDA-MB-231-DTR cells assessed as downregulation of Bcl2 expression level at 2.5 to 10 uM incubated for 48 hrs by Western blot analysis; assay type: functional, cell-based; conditions: dose 2.5-10 µM
# MDA-MB-231 [26] = test: Inhibition of cell invasion in docetaxel-resistant human MDA-MB-231-DTR cells at 3 to 6 uM incubated for 24 hrs by transwell invasion assay; assay type: functional, cell-based; conditions: dose 3-6 µM
# MDA-MB-231 [27] = test: Inhibition of cell migration in docetaxel-resistant human MDA-MB-231-DTR cells assessed as downregulation of vimentin expression level at 3 to 6 uM incubated for 24 hrs by Western blot analysis; assay type: functional, cell-based; conditions: dose 3-6 µM
# [28] = Toxicity in BALB/c mouse xenografted with docetaxel-resistant human MDA-MB-231-DTR cells assessed as body weight change at 5 mg/kg, ip daily for 12 days; assay type: organism-based; conditions: in vivo, 288 h, time 12 day
# MDA-MB-231 [29] = test: Antitumor activity against docetaxel-resistant human MDA-MB-231-DTR cells xenografted in BALB/c mouse assessed as reduction in tumor weight at 10 mg/kg, ip daily for 12 days in presence of docetaxel; assay type: functional, organism-based; conditions: time 12.0 day
# MDA-MB-231 [30] = test: Antitumor activity against docetaxel-resistant human MDA-MB-231-DTR cells xenografted in BALB/c mouse assessed as downregulation of vimentin level in tumor tissue at 10 mg/kg, ip daily for 12 days by Immunohistochemical analysis; assay type: functional, organism-based; conditions: time 12.0 day
smiles,measurement,setting,value
O=C(NCCc1c[nH]c2ccccc12)c1cc2c([nH]c3ccccc32)c(C(=O)c2ccc(Br)cc2)n1,IC50,MDA-MB-231 [1],3.11 µM
same,selectivity ratio,[2],10.7
same,IC50,[3],3.24 µM
same,inhibition,[4],Active
same,CI,[5],0.37
same,CI,[6],0.66
same,CI,[7],0.45
same,CI,[8],0.32
same,Activity,[9],21.18%
same,Activity,[10],2.51%
same,Activity,[11],51.37%
same,Activity,[12],12.13%
same,Activity,[13],18.42%
same,Activity,[14],29.72%
same,Activity,MDA-MB-231 [15],Active
same,Activity,MDA-MB-231 [16],Active
same,Activity,MDA-MB-231 [17],Active
same,Activity,[18],1.75%
same,Activity,[19],19.53%
same,Activity,[20],55.56%
same,Activity,[21],12.14%
same,Activity,[22],17.91%
same,Activity,[23],26.59%
same,Activity,MDA-MB-231 [24],Active
same,Activity,MDA-MB-231 [25],Active
same,inhibition,MDA-MB-231 [26],Dose-Dependent Effect
same,inhibition,MDA-MB-231 [27],Active
same,Activity,[28],Non-Toxic
same,Activity,MDA-MB-231 [29],Active
same,Activity,MDA-MB-231 [30],Active
